Results taken from article PMC6989399, “A drug library screen identifies Carbenoxolone as novel FOXO inhibitor that overcomes FOXO3-mediated chemoprotection in high-stage neuroblastoma” (Oncogene, 2019).
One block for each molecule: values may come before it.

Columns and labels:
FOXO6-DBD = FOXO6-DBD (Homo sapiens, UniProt A8MYZ6); test: competitive fluorescence polarization (displacement of IRE-FAM oligonucleotide), […] CBX; type: binding
FOXO3-DBD [1] = biological target: FOXO3-DBD (Homo sapiens, UniProt O43524); test: competitive fluorescence polarization (displacement of IRE-FAM oligonucleotide), confirmed by FAM-EMSA; type: binding
Chain of FOXO3-DBD (Homo sapiens, UniProt O43524) (O43524 156-269): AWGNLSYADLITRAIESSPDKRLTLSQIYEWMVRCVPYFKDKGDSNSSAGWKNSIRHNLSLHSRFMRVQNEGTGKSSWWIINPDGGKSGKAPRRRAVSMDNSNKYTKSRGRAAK

FOXO4-DBD = FOXO4-DBD (Homo sapiens, UniProt P98177); test: competitive fluorescence polarization (displacement of IRE-FAM oligonucleotide), […] CBX; type: binding
Chain of FOXO4-DBD (P98177 82-207): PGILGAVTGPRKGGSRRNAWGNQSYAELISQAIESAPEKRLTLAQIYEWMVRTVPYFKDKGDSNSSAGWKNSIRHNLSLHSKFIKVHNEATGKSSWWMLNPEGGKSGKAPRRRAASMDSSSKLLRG

FOXO3-DBD [2] = biological target: T1, FOXO3-DBD (Homo sapiens, UniProt O43524 156-269); test: EMSA; 1 uM protein, 100 nM DNA; FPA: 200 mM Tris pH 7.5, 100 mM NaCl, 1 mM EDTA (BSA-precoated plates), 30 min RT (15 C, uncoated for FOXO1/3/4/6 comparison); FAM-EMSA: 20 mM Tris pH 7.5, 100; settings: protein: recombinant; tags: N-terminal GST; His (GST-His-purified); blunt
T1 sequence (O43524 156-269): as the sequence (O43524 156-269) above

FOXO3-DBD [3] = biological target: T1, FOXO3-DBD; test: fluorescence polarization; 5 nM IRE-FAM, 1-350 nM protein; FPA: 200 mM Tris pH 7.5, 100 mM NaCl, 1 mM EDTA (BSA-precoated plates), 30 min RT (15 C, uncoated for FOXO1/3/4/6 comparison); FAM-EMSA: 20 mM Tris pH 7.5, 100; settings: protein: recombinant; tags: N-terminal GST; His (GST-His-purified); blunt

Chain of FOXO6-DBD (A8MYZ6 87-200): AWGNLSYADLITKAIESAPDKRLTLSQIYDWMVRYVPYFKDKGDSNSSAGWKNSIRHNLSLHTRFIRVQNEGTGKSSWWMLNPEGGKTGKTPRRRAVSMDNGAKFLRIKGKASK

Ki (FOXO3-DBD [1]): 19 µM
Molecule: CC1(C)[C@@H](OC(=O)CCC(=O)O)CC[C@]2(C)[C@H]3C(=O)C=C4[C@@H]5C[C@@](C)(C(=O)O)CC[C@]5(C)CC[C@@]4(C)[C@]3(C)CC[C@@H]12 [CBX, Carbenoxolone]
competitive fluorescence polarization (displacement of IRE-FAM oligonucleotide), (FOXO6-DBD): CBX binds in addition to the FOXO3-DBD, also the FOXO1-DBD, the FOXO4-DBD, as well as the FOXO6-DBD | competitive fluorescence polarization (displacement of IRE-FAM oligonucleotide), (FOXO4-DBD): CBX binds in addition to the FOXO3-DBD, also the FOXO1-DBD, the FOXO4-DBD, as well as the FOXO6-DBD

B1: FoxP3-FAM (dsDNA)
DNA 1: AGCAAAGTTGTTTTTGATAATG
DNA 2: CATTATCAAAAACAACTTTGCT
binding result (FOXO3-DBD [2]): binds

B2: IRE-FAM (dsDNA)
DNA 1: CTATCAAAACAACGC
DNA 2: GCGTTGTTTTGATAG
Kd (FOXO3-DBD [3]): 0.0534 µM
